In patent publication US5623049A (Bayer Aktiengesellschaft, priority 1993, dated 1997):

What was measured:
[1] = Stability towards nucleases: blood; format: in vitro ADME; conditions: 75 μg of oligomer, lysed blood, nuclease buffer, 37° C., 3 hours; also: key: '+' denotes stability; no enzymic degradation
Experimental: (§1) Cell extracts from T-lymphocytes and blood were also employed for the stability investigations in addition to the purified, defined nucleases. For this purpose, 50 ml of cell suspension were centrifuged down at 2000 rpm, taken up in 500 μl of Tris/HCl buffer, pH 7.5; 40 mM CaCl2, and lysed with 5 μl of 20% SDS. Following dialysis against 0.1 M Tris/HCl, pH 7.5; 40 mM CaCl2, and a change of buffer after 4 hours, 5 μl were employed directly in the test. Blood was employed directly following lysis with doubly distilled H2 O. A 25mer oligonucleotide diester was employed as the positive control for digestion by the nucleases.
(§2) Subsequently, the gel was analysed by UV shadowing. […] The oligomers are stable towards the nucleases and cell extracts which were tested.

[2] = test system: Bal31 nuclease; experiment: Stability towards nucleases: Bal31 nuclease; format: in vitro ADME; conditions: 75 μg of oligomer, 5 μl of nuclease (40 units), 37° C., 3 hours; PAGE, UV shadowing; also: key: '+' denotes stability; no enzymic degradation
Experimental: as §2

[3] = Stability towards proteases: blood extract; format: in vitro ADME; conditions: 75 μg of oligomer, 5 μl of lysed blood, protease buffer, 37° C., 3 hours; also: key: '+' denotes stability; no enzymic degradation
Experimental: (§3) Cell extracts from T lymphocytes and blood were also employed for the stability investigations in addition to the purified, defined proteases. For this purpose, 50 ml of cell suspension were centrifuged down at 2000 rpm, taken up in 500 μl of Tris/HCl buffer, pH 7.5; 40 mM CaCl2, and lysed with 5 μl of 20% SDS. Following dialysis against 0.1 M Tris/HCl, pH 7.5; 40 mM CaCl2, and a change of buffer after 4 hours, 5 μl were employed directly in the test. Blood was lysed directly with doubly distilled H2 O and 5 μl were then employed in the test. Bovine serine albumin (BSA) and lysozyme were used as positive controls for digestion by the proteases.
(§4) Subsequently, the gel was analysed by UV shadowing.

[4] = Stability towards proteases: extracts of T-lymphocyte cells; format: in vitro ADME; conditions: 75 μg of oligomer, 5 μl of extract, protease buffer, 37° C., 3 hours; also: key: '+' denotes stability; no enzymic degradation
Experimental: as §3, §4

[5] = test system: Protease XXI; experiment: Stability towards proteases: Protease XXI; format: in vitro ADME; conditions: 75 μg of oligomer, 5 μl of protease, 37° C., 3 hours; PAGE, UV shadowing, silver staining; also: key: '+' denotes stability; no enzymic degradation
Experimental: as §4

[6] = test system: Trypsin; experiment: Stability towards proteases: Trypsin; format: in vitro ADME; conditions: 75 μg of oligomer, 5 μl of protease, 37° C., 3 hours; PAGE, UV shadowing, silver staining; also: key: '+' denotes stability; no enzymic degradation
Experimental: as §4

[7] = test system: Protease IX; experiment: Stability towards proteases: Protease IX; format: in vitro ADME; conditions: 75 μg of oligomer, 5 μl of protease, 37° C., 3 hours; PAGE, UV shadowing, silver staining; also: key: '+' denotes stability; no enzymic degradation
Experimental: as §4

[8] = biological target: Proteinase K (Parengyodontium album, UniProt P06873); experiment: Stability towards proteases: Proteinase K; format: in vitro ADME; conditions: 75 μg of oligomer, 5 μl of protease, 37° C., 3 hours; PAGE, UV shadowing, silver staining; also: key: '+' denotes stability; no enzymic degradation
Experimental: as §4

[9] = biological target: T1, S1 nuclease (Aspergillus oryzae, UniProt P24021); experiment: Stability towards nucleases: S1 nuclease; format: in vitro ADME; conditions: 75 μg of oligomer, 5 μl of nuclease (40 units), 37° C., 3 hours; PAGE, UV shadowing; also: key: '+' denotes stability; no enzymic degradation
T1 sequence (P24021 21-287): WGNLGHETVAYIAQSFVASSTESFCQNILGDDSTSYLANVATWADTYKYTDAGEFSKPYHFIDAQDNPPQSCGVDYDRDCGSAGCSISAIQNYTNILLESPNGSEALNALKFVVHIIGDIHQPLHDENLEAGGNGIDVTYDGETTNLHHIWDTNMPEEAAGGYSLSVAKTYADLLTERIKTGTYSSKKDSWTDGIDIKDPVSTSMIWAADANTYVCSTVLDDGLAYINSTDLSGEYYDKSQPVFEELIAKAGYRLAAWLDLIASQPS
Experimental: as §2

[10] = Stability of nucleic acid-binding oligomers towards proteases and nucleases (overall statements); format: in vitro ADME; conditions: 37° C., 3 hours
Experimental: For this purpose, the nucleic acid-binding oligomers were treated-with non-specific and specific proteases, such as, for example, pronase E, proteinase K, trypsin, endoprotease Lys.C, V8 protease, protease IX and protease XXI, nucleases, such as, for example, S1 nuclease and Ba131 nuclease, phosphodiesterase, and cell extracts and organ extracts and blood serum and blood extracts which contain various nucleases and proteases. The oligomers were examined for degradation by polyacrylamide gel electrophoresis and UV shadowing on TLC plates containing UV indicator and by silver-staining the polyacrylamide gels.
as §3, with “the proteases. […]” for “the proteases.”

[11] = Stability towards nucleases: T-lymphocyte extract; format: in vitro ADME; conditions: 75 μg of oligomer, nuclease buffer, 37° C., 3 hours; also: key: '+' denotes stability; no enzymic degradation
Experimental: as §1, §2

[12] = biological target: Endoprotease LYS--C (Lysobacter enzymogenes, UniProt Q7M135); experiment: Stability towards proteases: Endoprotease LYS--C; format: in vitro ADME; conditions: 75 μg of oligomer, 5 μl of protease, 37° C., 3 hours; PAGE, UV shadowing, silver staining; also: key: '+' denotes stability; no enzymic degradation
Experimental: as §4

[13] = test system: Pronase E; experiment: Stability towards proteases: Pronase E; format: in vitro ADME; conditions: 75 μg of oligomer, 5 μl of protease, 37° C., 3 hours; PAGE, UV shadowing, silver staining; also: key: '+' denotes stability; no enzymic degradation
Experimental: as §4

[14] = test system: double-stranded plasmid DNA containing two poly-adenine sequence regions; experiment: Strand displacement in double-stranded plasmid DNA; conditions: S1 nuclease digestion at high salt concentrations
Experimental: Double-stranded, circular plasmid DNA, which is of 4880 base pairs in length and which contains two poly-adenine sequence regions having at least nine consecutive adenine nucleotides, which sequence regions are at a distance apart of 1150 base pairs, is used in the tests described here.
Subsequently, 4 μl of buffer (250 mM Na acetate, 1 M NaCl, 2.5% glycerol, 5 mM ZnCl2, pH 4.4) were added to all the samples while 1 μl of S1 nuclease from Aspergillus oryzae (from Boehringer Mannheim), having an activity of 10 U/μl, was added to each of samples 2 to 6. After having been incubated at 30° C. for 15 minutes, the samples were placed on ice, 1 μl of 0.5 M EDTA and 3 μl of loading buffer (50% glycerol, 0.25% bromophenol blue in 40 mM Tris/HCl, 20 mM sodium acetate, 1 mM EDTA, pH=7.2) were added, and, without delay, the samples were fractionated electrophoretically on 1.2% agarose gels and, after staining with ethidium bromides, the sizes of the resulting plasmid fragments on the gel were determined by comparison with a molecular weight standard (1-kb ladder, from Gibco-BRL, D-7514 Eggenstein) on a transilluminator using 254 nm UV light.

Endoprotease LYS--C, sequence (Q7M135 whole entry): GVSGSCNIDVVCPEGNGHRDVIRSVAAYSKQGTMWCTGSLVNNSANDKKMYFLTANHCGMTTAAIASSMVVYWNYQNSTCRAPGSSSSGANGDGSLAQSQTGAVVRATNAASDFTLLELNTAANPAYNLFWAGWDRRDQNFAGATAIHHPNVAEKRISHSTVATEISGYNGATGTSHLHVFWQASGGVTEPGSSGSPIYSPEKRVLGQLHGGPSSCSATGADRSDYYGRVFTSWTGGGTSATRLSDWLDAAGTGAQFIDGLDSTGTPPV
Proteinase K, sequence (P06873 106-384): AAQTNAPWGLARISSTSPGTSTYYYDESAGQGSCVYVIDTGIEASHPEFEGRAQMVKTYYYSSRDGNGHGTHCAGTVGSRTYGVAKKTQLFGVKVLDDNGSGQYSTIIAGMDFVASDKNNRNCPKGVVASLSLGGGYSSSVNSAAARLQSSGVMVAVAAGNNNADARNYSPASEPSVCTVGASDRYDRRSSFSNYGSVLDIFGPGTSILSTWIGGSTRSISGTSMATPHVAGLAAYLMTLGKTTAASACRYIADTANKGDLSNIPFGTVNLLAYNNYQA

Row | Substance | Stability towards blood, nuclease test [1] | Stability towards Bal31 nuclease [2] | Stability towards extract of blood, protease test [3] | Stability towards extracts of T-lymphocyte cells (HUT, U 937), protease test [4] | Stability towards Protease XXI [5] | Stability towards Trypsin [6] | Stability towards Protease IX [7] | Stability towards Proteinase K [8] | Stability towards S1 nuclease [9] | Stability towards the proteases and cell extracts which were tested [10] | Stability towards T-lymphocyte extract, nuclease test [11] | Stability towards Endoprotease LYS--C [12] | Stability towards Pronase E [13] | Binding to double-stranded DNA (strand displacement), result in words [14]
1 | H--(III T)8 --Ala--OH [H-(IIIT)8 -Ala--OH] | + | + | + | + | + | + | + | + | + | stable | + | + | + | –
2 | H--(III T)12 --Lys--OH [H-(IIIT)12 -Lys--OH] | + | + | + | + | + | + | + | + | + | stable | + | + | + | concentration-dependent and sequence-selective binding
